Data published in patent US7700655B2, “Antiallergic agents” (Institute of Medicinal Molecular Design, Inc., priority 2002, dated 2010).

Key:
NC/Nga mouse [1] = assay: Immediate type allergy reaction inhibitory test (ear swelling test); type: in vivo; conditions: 15 mg/kg intraperitoneally, picryl chloride on auricle; FIG. 1
Description: Immediate Type Allergy Reaction Inhibitory Test (Ear Swelling Test)
To NC/Nga mouse sensitized by an intravenous administration of anti DNP-IgE, a diluent with a test compound for the drug administered group or that without a test drug for the control group was intraperitoneally administered. Two hours after the administration, picryl chloride dissolved in olive oil was applied to auricle to induce immediate allergy, and then swelling of the auricle was measured with passage of time for comparison of the drug administered group and the control group.

[2] = test system: B cells isolated from mouse spleen; assay: IgE production inhibitory test of spleen B cell (ELISA); type: cell-based; conditions: 0.1 μM; rmIL-4 200 U/ml + soluble mCD40 ligand 100 ng/ml, 9 days; no-drug control 45.6
Description: IgE Production Inhibitory Test of Spleen B Cell
B cells isolated from mouse spleen were cultured with 200 U/ml of rmIL-4 and 100 ng/ml of soluble mCD40 ligand in the presence or absence of a test drug in PRMI 1640 medium containing 10% of bovine fetal serum for 9 days, and the amount of IgE in the culture medium was measured by ELISA method.

NC/Nga mouse [3] = assay: Dermatitis inhibitory test by atopic dermatitis model using NC/Nga mouse; type: in vivo; conditions: ointment containing 1% applied once a day; FIG. 2
Description: Dermatitis Inhibitory Test by Atopic Dermatitis Model Using NC/Nga Mouse
To the conventional NC/Nga mouse with the onset of severe dermatitis, an ointment containing 1% of a test substance for the drug treated group or a base material of the ointment for the control group was applied once a day, and clinical symptoms were recorded as scores with passage of day. Furthermore, the amounts of IgE in blood before and after the test were measured by ELISA.

HT-1080 cells = assay: Proliferation inhibitory test of fibrosarcoma (HT-1080) under PDGF stimulation (MTT assay); type: cell-based; conditions: 48 hours
Description: Proliferation Inhibitory Test of Fibrosarcoma (HT-1080) Under PDGF Stimulation
HT-1080 cells were cultured for 2 hours in EMEM medium containing 1% of FBS and NEAA in the presence or absence of a test substance. PDGF was added and the cells were cultured for 48 hours, and the proliferation of the cells was measured by MTT assay.

[4] = test system: Bone marrow-derived cultured mast cells of NC/Nga mouse; assay: Proliferation inhibitory test of mast cell under stimulation by SCF and IL-3; type: cell-based; conditions: rmIL-3 100 U/ml + SCF 100 ng/ml, living cells by trypan blue
Description: Proliferation Inhibitory Test of Mast Cell Under Stimulation by SCF and IL-3
Bone marrow-derived cultured mast cells (10^5 cells/ml) of NC/Nga mouse were cultured with rmIL-3 (100 U/ml) and SCF (100 ng/ml) in the presence or absence of a test drug in α-Modified Eagle's Medium containing 10% of bovine fetal serum without phenol red, and then stained with trypan blue, and the number of living cells was counted.

[5] = test system: mouse bone marrow-derived cultured mast cells (BMCMC); assay: Degranulation inhibitory test of mast cell (β-hexosaminidase release); type: cell-based; conditions: 1 h, anti DNP IgE / DNP-BSA 50 ng/ml stimulation, 60 minutes, read-out: Inhibitory Ration of Degranulation(%) at 10 μM Drug Concentration
Description: Degranulation Inhibitory Test of Mast Cell
Anti DNP IgE was added to mouse bone marrow-derived cultured mast cells (BMCMC) which were treated beforehand with anti DNP IgE for 4 days for expression of IgE receptor. The cells were cultured for 3 days, and treated for 1 hour with or without the addition of a test substance. Then, the medium was changed to α-Modified Eagle's Medium containing 10% of bovine fetal serum without phenol red. After cultivation for 60 minutes with rmIL-3 (100 U/ml) and DNP-BSA (50 ng/ml) in the presence or absence of the test substance, the concentrations of β-hexosaminidase in the culture medium and in the cells were determined, and the progress of degranulation was measured from a ratio of the amounts. The inhibitory ratio of the degranulation by the drug was calculated when degranulation in the absence of the test substance was taken as 100%, and degranulation in the presence of anti DNP-IgE only and in the absence of the test substance was taken as 0%.

SMILES	Inhibitory Ratio of Proliferation(%) (HT-1080 cells; Drug Concentration 250 nM)	Inhibitory Ratio of Proliferation(%) (HT-1080 cells; Drug Concentration 500 nM)	inhibition at 10 µM [5] [%]	further results
O=C(Nc1cc(C(F)(F)F)cc(C(F)(F)F)c1)c1cc(Cl)ccc1O [compound 50, N-[3,5-Bis(trifluoromethyl)phenyl]-5-chloro-2-hydroxybenzamide]	65.4	96.6	> 99	effect against immediate type allergy (swelling of the auricle) (NC/Nga mouse [1]): inhibitory effect; Amount of IgE [2]: 24 ng/mL; effect against dermatitis with an atopic dermatitis model (clinical symptom scores) (NC/Nga mouse [3]): inhibitory effect; Number of Cell ([4]; 1 μM, culture time 0 hr): 100000 mL⁻¹; Number of Cell ([4]; 1 μM, culture time 24 hr): 86000 mL⁻¹; Number of Cell ([4]; 1 μM, culture time 48 hr): 84000 mL⁻¹; Number of Cell ([4]; 1 μM, culture time 72 hr): 116000 mL⁻¹; Number of Cell ([4]; 5 μM, culture time 0 hr): 100000 mL⁻¹; Number of Cell ([4]; 5 μM, culture time 24 hr): 70000 mL⁻¹; Number of Cell ([4]; 5 μM, culture time 48 hr): 52000 mL⁻¹; Number of Cell ([4]; 5 μM, culture time 72 hr): 22000 mL⁻¹
CC(C)(C)c1ccc(O)c(C(=O)Nc2cc(C(F)(F)F)cc(C(F)(F)F)c2)c1 [compound 56, N-[3,5-Bis(trifluoromethyl)phenyl]-5-[(1,1-dimethyl)ethyl]-2-hydroxybenzamide]	37.5	96.9	92	
O=C(Nc1cc(C(F)(F)F)cc(C(F)(F)F)c1)c1cc(-n2cccc2)ccc1O [compound 71]	57.9	83.1		
O=C(Nc1cc(C(F)(F)F)ccc1C(F)(F)F)c1cc(Cl)ccc1O [compound 100, N-[2,5-bis(trifluoromethyl)phenyl]-5-chloro-2-hydroxybenzamide]			83	
O=C(Nc1cc(C(F)(F)F)ccc1Cl)c1cc(Cl)ccc1O [compound 113, 5-chloro-N-[2-chloro-5-(trifluoromethyl)phenyl]-2-hydroxybenzamide]			93	
CC(=O)Oc1ccccc1C(=O)Nc1cc(Cl)cc(Cl)c1 [compound 172, 2-acetoxy-N-(3,5-dichlorophenyl)benzamide]				melting point: 218 to 219 °C
CC(C)(C)C(=O)c1sc(NC(=O)c2cc(Cl)ccc2O)nc1C(C)(C)C [compound 195, 5-Chloro-N-{4-[(1,1-dimethyl)ethyl]-5-[(2,2-dimethyl)propionyl]thiazol-2-yl}-2-hydroxybenzamide]	44.7	81.7	72	
CC(C)(C)c1nc(NC(=O)c2cc(Br)ccc2O)sc1N1CCOCC1 [compound 199, 5-Bromo-N-{4-[(1,1-dimethyl)ethyl]-5-morpholinothiazol-2-yl}-2-hydroxybenzamide]	26.2	24.2		
CC(C)(C)c1nc(NC(=O)c2cc(Br)ccc2O)sc1N1CCN(c2ccccc2)CC1 [compound 201, 5-Bromo-N-{4-[(1,1-dimethyl)ethyl]-5-(4-phenylpiperazin-1-yl)thiazol-2-yl}-2-hydroxybenzamide]	60.3	76.2		
O=C(Nc1cc(C(F)(F)F)ccc1C(F)(F)F)c1cc(Br)ccc1O [compound 552]	24.0	19.4		
